Laboratory results published in patent US4021472A, “Guanidinobenzoic acid derivatives” (Ono Pharmaceutical Co., Ltd., priority 1974, dated 1977).
≈ marks a conversion by molar mass, not a printed value. Like-named read-outs stand apart in the source and are kept apart here.

Assays:
Solubility in water = assay type: physicochemical
trypsin = target: T1, trypsin (Bos taurus, UniProt P00760); assay: Anti-trypsin: 50% inhibition of hydrolysis of p-tosylarginine methyl ester by trypsin in vitro; assay type: biochemical; conditions: 37° C., 30 minutes, Tris-HCl buffer pH 8.5, p-tosylarginine methyl ester substrate; read-out: 50% Inhibition Concentration, Anti-Trypsin
T1 sequence (P00760 24-246): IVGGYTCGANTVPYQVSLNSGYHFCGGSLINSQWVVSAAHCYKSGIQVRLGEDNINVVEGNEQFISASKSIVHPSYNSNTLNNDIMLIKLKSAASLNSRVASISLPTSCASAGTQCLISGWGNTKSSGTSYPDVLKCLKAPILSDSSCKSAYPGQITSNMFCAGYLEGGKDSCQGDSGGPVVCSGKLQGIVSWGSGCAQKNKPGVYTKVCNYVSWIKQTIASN
Description: The inhibitory activities of representative compounds of formula (I) against plasmin and trypsin in vitro were determined in a manner similar to the method described by M. Muramatsu et al (J. Biochemistry 57, 402 (1965)) for plasmin, and the method described by M. Muramatsu et al (J. Biochemistry 58, 214 (1964)) for trypsin, as follows:
(2) Trypsin: A system comprising 0.4 ml of trypsin (1.25 μg/ml), 0.5 ml of p-tosylarginine methyl ester (20 mM) in Tris-HCl buffer (pH 8.5) and 0.1 ml of a solution of each of the following compounds of formula (I) at various concentrations was reacted at a temperature of 37° C. for 30 minutes. The concentration of each of the test compounds at which the activity of trypsin 0.5 μg to hydrolyze p-tosylarginine methyl ester was 50% inhibited is shown in Table 1 below. As a control, Trasylol (tradename of a peptide extracted from bovine organs having an inhibitory activity against a proteolytic enzyme and manufactured by Bayer A.G.) was used.

plasmin [1] = target: T2, plasmin (Homo sapiens, UniProt P00747); assay: Anti-plasmin: 50% inhibition of plasmin in vitro (euglobulin/streptokinase/fibrinogen system); assay type: biochemical
T2 construct: from tissue
T2 sequence (P00747 581-810 limits assumed): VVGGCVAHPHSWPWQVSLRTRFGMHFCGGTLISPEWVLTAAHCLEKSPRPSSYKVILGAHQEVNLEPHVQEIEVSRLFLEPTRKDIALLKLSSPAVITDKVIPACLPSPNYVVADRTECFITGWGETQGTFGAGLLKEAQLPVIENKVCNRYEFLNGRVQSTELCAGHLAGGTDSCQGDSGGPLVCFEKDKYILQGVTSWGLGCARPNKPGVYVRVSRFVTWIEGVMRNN
T2 sequence (P00747 97-580 partner limits assumed): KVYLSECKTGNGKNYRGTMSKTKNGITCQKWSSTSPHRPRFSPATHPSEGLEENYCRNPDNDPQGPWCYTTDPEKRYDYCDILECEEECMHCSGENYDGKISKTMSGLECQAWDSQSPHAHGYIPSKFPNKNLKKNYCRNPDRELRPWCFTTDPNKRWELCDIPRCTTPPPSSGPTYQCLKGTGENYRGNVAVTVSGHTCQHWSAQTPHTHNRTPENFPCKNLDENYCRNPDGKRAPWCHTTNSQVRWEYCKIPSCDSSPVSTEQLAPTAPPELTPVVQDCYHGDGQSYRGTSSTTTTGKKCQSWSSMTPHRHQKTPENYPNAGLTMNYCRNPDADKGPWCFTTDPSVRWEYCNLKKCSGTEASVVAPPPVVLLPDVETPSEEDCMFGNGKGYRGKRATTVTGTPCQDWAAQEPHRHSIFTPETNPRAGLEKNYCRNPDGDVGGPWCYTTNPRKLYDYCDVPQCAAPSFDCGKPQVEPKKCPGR
Description: (1) Plasmin: A system comprising 0.1 ml of human euglobulin (10 fold dilution), 0.1 ml of streptokinase (2000 unit/ml), 0.4 ml of fibrinogen (4% solution), 0.3 ml of a 0.1 M borate saline buffer solution (pH 7.4) and 0.1 ml of a solution of each of the following compounds of formula (I) at various concentrations was allowed to react at a temperature of 37° C. for 30 minutes.

rat pancreatitis = assay: Effect on rat pancreatitis induced by sodium taurocholate and trypsin (mortality); assay type: in vivo, rat (male Wistar); conditions: intravenous injection
Description: Male Wistar rats weighing 200 to 250 g were laparotomized under anesthetization with pentobarbital and to the thus laparotomized rats 0.1 ml of a mixture of sodium taurocholate and trypsin was administered through the pancreatic duct to induce pancreatitis.
Mortality rates for up to 48 hrs. after the administration were compared between the groups in which the compounds of the present invention were injected intravenously and the control groups in which a physiological salt solution was injected intravenously.

plasmin [2] = assay: Inhibitory effects for fibrinolysis of plasmin (fibrinolytic activity in rabbits after human serum and streptokinase); assay type: in vivo, rabbit; conditions: 5 mg/kg iv
Description: Inhibitory effects for fibrinolysis of plasmin were examined according to the method of S. Okamoto and U. Okamoto (Keio Journal of Medicine 11 (No. 3) 105 (1962)).
10 ml of human serum was administered to male rabbits weighing 2.0 to 2.5 Kg through the femoral vein, and after 2 minutes 50,000 units of streptokinase was administered to the rabbits intraveneously to activate plasmin.
Each of the test compounds of the present invention was administered to the rabbits at a dosage level of 5 mg/Kg 5 minutes after the administration of streptokinase. After 15, 30, 60, 90, 120 and 180 minutes, 0.5 ml of blood was drawn from the rabbits, and the blood then incubated at 37° C. for 3 hrs. to coagulate the blood. The thus formed blood clots were washed with water and dried. The dry weight of the blood clots was evaluated and compared with the normal value (the value obtained prior to administration of the human serum).
The values in Table 2 were calculated according to the following equation: [formula]

[3] = 37° C., 30 minutes, borate saline buffer pH 7.4, human euglobulin, streptokinase, fibrinogen, read-out: 50% Inhibition Concentration, Anti-Plasmin

Compound | solubility (Solubility in water) [mM] | IC50 (trypsin) [nM] | IC50 (plasmin [1]; [3]) [nM] | Mortality for 48 hrs. (rat pancreatitis; 1 mg/kg) [%] | Mortality for 48 hrs. (rat pancreatitis; 2.5 mg/kg) [%] | Mortality for 48 hrs. (rat pancreatitis; 5.0 mg/kg) [%] | Fibrinolytic Activity in Rabbits (plasmin [2]; 15 min. after) [%] | Fibrinolytic Activity in Rabbits (plasmin [2]; 30 min. after) [%] | Fibrinolytic Activity in Rabbits (plasmin [2]; 60 min. after) [%] | Fibrinolytic Activity in Rabbits (plasmin [2]; 90 min. after) [%] | Fibrinolytic Activity in Rabbits (plasmin [2]; 120 min. after) [%] | Fibrinolytic Activity in Rabbits (plasmin [2]; 180 min. after) [%] | IC50 (plasmin [1]) [nM]
CN(C)C(=O)COC(=O)C=Cc1ccc(OC(=O)c2ccc(NC(=N)N)cc2)cc1 [compound 6] | 10 (≈ 4100 µg/mL) | 0.09 | 19.5 | – | – | – | – | – | – | – | – | – | –
CN(C)C(=O)COC(=O)CCc1ccc(OC(=O)c2ccc(NC(=N)N)cc2)cc1 [compound 7] | 10 (≈ 4120 µg/mL) | 0.56 | 120 | – | – | – | – | – | – | – | – | – | –
CN(C)C(=O)COC(=O)c1ccc(OC(=O)c2ccc(NC(=N)N)cc2)cc1 [compound 3] | > 20 | 2.7 | 2 | – | – | – | – | – | – | – | – | – | –
CNC(=O)COC(=O)c1ccc(OC(=O)c2ccc(NC(=N)N)cc2)cc1 [Compound No.2] | 50 (≈ 18500 µg/mL) | 3.5 | 1.6 | 85.7 | 42.8 | 30 | 0 | 0 | 2 | 2 | 12 | 31 | –
CCCN(CCC)C(=O)COC(=O)c1ccc(OC(=O)c2ccc(NC(=N)N)cc2)cc1 [compound 4] | 10 (≈ 4410 µg/mL) | 1.4 | 0.53 | – | – | – | – | – | – | – | – | – | –
CNC(=O)COC(=O)Cc1ccc(OC(=O)c2ccc(NC(=N)N)cc2)cc1 [compound 8] | 10 (≈ 3840 µg/mL) | 12 | 10 | – | – | – | – | – | – | – | – | – | –
CN(C)C(=O)COC(=O)Cc1ccc(OC(=O)c2ccc(NC(=N)N)cc2)cc1 [Compound No.5] | 100 (≈ 39800 µg/mL) | 8.5 | – | 64.2 | 50.0 | 44.4 | 0 | 0 | 4 | 20 | 46 | 52 | 38
N=C(N)Nc1ccc(C(=O)Oc2ccc(C(=O)OCC(N)=O)cc2)cc1 [compound 1] | 1 (≈ 356 µg/mL) | 3 | 15 | – | – | – | – | – | – | – | – | – | –
